Where “and” joins values, the source holds several entries; their conditions need not be identical. Identical values can stand only once.
Experiments:
[1] = test system: mice; test: Hot plate test in mice (nociceptive reaction latency); assay type: in vivo; settings: i.v., Anandamide 20 mg/kg, Compound 4 10 mg/kg, cut-off 30 seconds; for Nociceptive Reaction Latency, Mean: N 10; for Nociceptive Reaction Latency, individual mice: hot plate 56° C.
Protocol: This experiment assessed the analgesic effects of anandamide, compound 4, and a combination of anadamide and compound 4 in the hot plate test in mice.
One hundred (100) male Swiss mice ICO: OF1 (IOPS Caw) (Iffa Credo, France) weighing 17 g to 23 g were used in the study. The mice were housed in a temperature (19.5–24.5° C.) and relative humidity (45–65%) controlled room with a 12-h light/dark cycle, with ad libitum access to filtered tap-water and standard pelleted laboratory chow (U.A.R., France) throughout the study. Upon receipt at animal facilities, they were housed 20 per cage and at least a 5-day acclimatization period was observed. Animals were individually identified on their tails.
Ten groups of 10 animals each were used in this study. The individual groups were treated as set forth below. The doses used are expressed in terms of free active substance. The test and reference substances and the vehicle were administered by intravenous route (i.v) in a random order with a volume of 5 mL/kg. Anandamide and compound 4 were concomitantly administered as a mixture by intravenous route under a volume of 10 mL/kg (Groups 3, 7 and 10).
Twenty, thirty and sixty minutes after dosing, a given mouse was placed on a metallic hot plate maintained at 56±0.2° C. The nociceptive reaction latency, characterized by a licking reflex of the forepaws or by a jumping off the hot plate, was recorded. The cut-off time was set to 30 seconds. See Eddy NB, Touchberry CF, Lieberman JE. “Synthetic analgesics.
The mean results from these experiments are presented graphically in FIG. 6. The results tabulated in FIG. 6 are expressed as mean±sem. ANOVA (2 ways): time/treatment's effect as well as interaction between the two, for vehicle, anandamide and association groups. Dunnett's test: * indicates a significant difference in comparison with the vehicle-treated group for P<0.05. Dunnett's test :† indicates a significant difference in comparison with the same treated group at t−60 min for P<0.05. ANOVA (1 ways): at t−30 min for vehicle, anandamide, compound 4 and association groups. Dunnett's test: ° indicates a significant difference in comparison with the vehicle-treated group for P<0.05. Vehicle: Saline+20% DMSO; n=10 mice per groups.

[2] = test system: mammalian anandamide transporter; test: Anandamide uptake functional assay; assay type: cell-based, human; settings: reference compound; U-937 cells, [3H]-AEA uptake; read-out: IC50 of AM-404 in this assay
Protocol: The characterization of anandamide uptake was performed with human monocytes (U-937 cells), using a 96 wells format (volume of the reaction 500 μL). Uptake of radiolabelled anandamide by U-937 cells (10^5 cells in 400 μL/well) occured during a 15 minutes incubation time at 37° C. in the presence of test compounds added in solution in 50 μL and 50 μL of [^3H]-AEA (2 nM)/AEA (98 nM).
U-937 cells and [^3H]-AEA/AEA were prepared in a Krebs buffer pH 7.4 containing 25 mM NaHCO3, 11 mM glucose, 50 μM ascorbic acid and 1% BSA. This incubation buffer is oxygenated for 5 minutes before incubation. Basal control is incubated for 15 minutes at 4° C., in absence of any test or reference compound to prevent uptake.
Following incubation, uptake was stopped by filtration through a “unifilter 96-well GFB plate” (Packard) washed with Krebs buffer containing 25 mM NaHCO3 to eliminate the free [^3H]-AEA. The radioactivity associated with the U-937 cells corresponding to the uptake was retained on the unifilter and was measured with a Topcount Microplate Scintillation Counter, (Packard) using Microscint 0 scintillation liquid (Packard).
FIGS. 3–5 depict certain compounds of the present invention and their IC50 values as determined in this assay. […]

[3] = test system: AT; settings: background; read-out: IC50, inhibits AT; cited from earlier work

| SMILES | Nociceptive Reaction Latency, Mean ([1]; 30 minutes post-administration) | Nociceptive Reaction Latency, individual mice ([1]; 30 minutes post-administration) | Nociceptive Reaction Latency, Mean ([1]; 20 minutes post-administration) | Nociceptive Reaction Latency, individual mice ([1]; 20 minutes post-administration) | Nociceptive Reaction Latency, Mean ([1]; 60 minutes post-administration) | Nociceptive Reaction Latency, individual mice ([1]; 60 minutes post-administration) | IC50 [2] | IC50 [3] |
| --- | --- | --- | --- | --- | --- | --- | --- | --- |
| C=CCOc1ccc(CN(CC=Cc2ccccc2)CCOC)cc1 [Compound 4, N-(4-Allyloxybenzyl)-N-(2-methoxyethyl)-N-(3-phenyl-allyl)amine] | 10.2 s | 10 s and 12.8 s and 14.5 s and 4.5 s and 10.4 s and 4.2 s and 9.6 s and 13.5 s and 16.3 s and 6.1 s | – | – | – | – | – | – |
| CCCCC/C=C\C/C=C\C/C=C\C/C=C\CCCC(=O)NCCO [Anandamide, N-(2-hydroxyethyl)arachidonamide] | 8.1 s | 8.9 s and 7.5 s and 10.7 s and 7.9 s and 5.2 s and 9.7 s and 10 s and 7.1 s and 6.5 s and 7.8 s | 8.9 s | 10.3 s and 21.2 s and 6.3 s and 8.8 s and 4.9 s and 5.3 s and 8.1 s and 7.8 s and 5.1 s and 11.5 s | 11.7 s | 6.9 s and 11.1 s and 10.1 s and 9.3 s and 11.7 s and 8.9 s and 16.1 s and 13.5 s and 24.4 s and 4.6 s | – | – |
| CCCCC/C=C\C/C=C\C/C=C\C/C=C\CCCC(=O)Nc1ccc(O)cc1 [AM-404, N-(4-hydroxyphenyl)arachidonamide] | – | – | – | – | – | – | 2000 nM | ~2000 nM |
